Data from paper PMC4184702 (Pharmacology Research & Perspectives, 2014).

Legend:
5-HT4 = target: T1, 5-HT4 (Homo sapiens, UniProt Q13639); assay: PDSP primary binding, 5-HT4; details: n = 4, read-out: Inhibition (primary binding competition efficacy), 5-HT4
T1 construct: purchased NIMH Psychoactive Drug Screening Program (PDSP)
Description: (§1) For experimental details, please refer to the Psychoactive Drug Screening Program (PDSP) web site http://pdsp.med.unc.edu/.
(§2) ^a The default concentration for primary binding experiments is 10 µM (n = 4). ^b Negative inhibition represents a stimulation of binding. ^c BZPR: Benzodiazepine Receptors (rat brain site). ^d DOR: Delta Opioid Receptor; KOR: Kappa Opioid Receptor; MOR: Mu Opioid Receptor. ^e DAT: Dopamine Transporter; NET: Norepinephrine Transporter; SERT: Serotonin Transporter. ^f NMDA: N-methyl-D-aspartate receptor.

M3 muscarinic receptor = target: T2, M3 muscarinic receptor (Homo sapiens, UniProt P20309); assay: PDSP primary binding, M3; details: n = 4, read-out: Inhibition (primary binding competition efficacy), M3
T2 construct: purchased NIMH Psychoactive Drug Screening Program (PDSP)
T2 sequence (P20309 whole entry): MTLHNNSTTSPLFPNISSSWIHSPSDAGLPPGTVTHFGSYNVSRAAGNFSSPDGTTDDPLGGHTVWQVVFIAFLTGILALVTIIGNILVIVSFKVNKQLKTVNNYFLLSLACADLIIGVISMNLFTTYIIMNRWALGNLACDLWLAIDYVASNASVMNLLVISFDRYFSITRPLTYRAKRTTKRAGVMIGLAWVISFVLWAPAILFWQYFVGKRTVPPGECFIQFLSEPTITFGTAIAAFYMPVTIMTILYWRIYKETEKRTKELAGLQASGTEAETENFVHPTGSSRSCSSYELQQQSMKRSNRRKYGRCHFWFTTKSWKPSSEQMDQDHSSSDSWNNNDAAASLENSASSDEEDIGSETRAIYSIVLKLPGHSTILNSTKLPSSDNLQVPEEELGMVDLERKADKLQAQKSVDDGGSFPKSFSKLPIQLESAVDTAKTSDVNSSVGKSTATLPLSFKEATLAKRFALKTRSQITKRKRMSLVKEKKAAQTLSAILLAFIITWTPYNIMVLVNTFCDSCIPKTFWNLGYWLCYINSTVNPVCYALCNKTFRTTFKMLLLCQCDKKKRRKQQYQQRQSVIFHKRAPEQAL
Description: as §1, §2

[1] = Bacterial cytotoxicity, strain TA100; type: cell-based; details: Salmonella typhimurium, bacterial tester strain TA100 without S9, read-out: Cytotoxicity (% of Control Values)
From the text: (§3) Supplement prp20002-e00026-sd1.doc, table 4: Table 4.

human α7-nAChR = target: T3, human α7-nAChR (Homo sapiens, UniProt P36544); assay: Two-electrode voltage-clamp recording in Xenopus oocytes, α7; type: cell-based
T3 construct: expressed in transfected cells; host or cells: Xenopus oocytes (cRNA injection)
T3 sequence (P36544 23-502): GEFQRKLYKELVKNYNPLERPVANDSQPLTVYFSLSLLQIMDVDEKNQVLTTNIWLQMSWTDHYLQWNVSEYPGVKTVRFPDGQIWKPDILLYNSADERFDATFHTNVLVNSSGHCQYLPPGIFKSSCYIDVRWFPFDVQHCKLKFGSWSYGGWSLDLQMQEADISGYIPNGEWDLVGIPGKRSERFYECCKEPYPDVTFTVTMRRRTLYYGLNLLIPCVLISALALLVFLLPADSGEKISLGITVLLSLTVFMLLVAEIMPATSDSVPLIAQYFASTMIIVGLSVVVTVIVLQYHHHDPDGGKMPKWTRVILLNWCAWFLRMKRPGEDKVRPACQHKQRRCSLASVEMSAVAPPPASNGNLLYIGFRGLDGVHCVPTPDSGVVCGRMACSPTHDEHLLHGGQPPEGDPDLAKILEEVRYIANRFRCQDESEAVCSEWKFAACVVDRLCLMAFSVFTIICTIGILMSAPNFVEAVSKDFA
Description: Xenopus oocytes were injected with cRNAs encoding human nicotinic receptor subunits (α4:β2 at 1:1 ratio or α7). Three to five days after injection, oocytes were individually placed in a custom made small volume chamber and continuously perfused with oocyte Ringer's solution (OR2; 92.5 mmol/L NaCl, 2.5 mmol/L KCl, 1 mmol/L CaCl2, 1 mmol/L MgCl2, and 5 mmol/L HEPES at pH 7.5). Drugs were delivered to the oocytes through a ValveLink8.2 computer-controlled perfusion system (Automate Scientific, Inc, Berkeley, CA). The chamber was grounded through an agar KCl bridge. The oocytes were voltage-clamped at −70 mV to measure agonist-induced currents using a GeneClamp 500B amplifier (Axon Instruments, Foster City, CA). The current signal was filtered at 20 Hz with the built-in four pole low-pass Bessel filter and digitized at 100 Hz.

[2] = Bacterial cytotoxicity, strain TA98; type: cell-based; details: Salmonella typhimurium, bacterial tester strain TA98 without S9, read-out: Cytotoxicity (% of Control Values)
From the text: as §3

α1A adrenergic receptor = target: T4, α1A adrenergic receptor (Homo sapiens, UniProt P35348); assay: PDSP primary binding, α1A; details: n = 4, read-out: Inhibition (primary binding competition efficacy), α1A
T4 construct: purchased NIMH Psychoactive Drug Screening Program (PDSP)
T4 sequence (P35348 whole entry): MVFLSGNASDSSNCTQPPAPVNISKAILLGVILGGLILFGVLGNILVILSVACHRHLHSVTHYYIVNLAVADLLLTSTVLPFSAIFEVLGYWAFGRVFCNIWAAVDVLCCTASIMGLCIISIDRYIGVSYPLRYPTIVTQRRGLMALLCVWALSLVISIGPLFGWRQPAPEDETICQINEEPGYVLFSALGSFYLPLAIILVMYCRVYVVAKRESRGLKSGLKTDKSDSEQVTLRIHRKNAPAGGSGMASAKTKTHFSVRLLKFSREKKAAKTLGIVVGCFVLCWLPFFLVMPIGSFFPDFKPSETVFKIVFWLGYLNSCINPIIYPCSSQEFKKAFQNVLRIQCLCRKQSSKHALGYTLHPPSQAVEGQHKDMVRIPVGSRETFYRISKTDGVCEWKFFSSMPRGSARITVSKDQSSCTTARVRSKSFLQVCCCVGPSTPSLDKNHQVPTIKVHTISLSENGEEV
Description: as §1, §2

σ 1 sigma receptor = assay: PDSP primary binding, σ 1; details: 10 µM, n = 4
Description: as §1, §2

M4 muscarinic receptor = target: T5, M4 muscarinic receptor (Homo sapiens, UniProt P08173); assay: PDSP primary binding, M4; details: n = 4, read-out: Inhibition (primary binding competition efficacy), M4
T5 construct: purchased NIMH Psychoactive Drug Screening Program (PDSP)
T5 sequence (P08173 whole entry): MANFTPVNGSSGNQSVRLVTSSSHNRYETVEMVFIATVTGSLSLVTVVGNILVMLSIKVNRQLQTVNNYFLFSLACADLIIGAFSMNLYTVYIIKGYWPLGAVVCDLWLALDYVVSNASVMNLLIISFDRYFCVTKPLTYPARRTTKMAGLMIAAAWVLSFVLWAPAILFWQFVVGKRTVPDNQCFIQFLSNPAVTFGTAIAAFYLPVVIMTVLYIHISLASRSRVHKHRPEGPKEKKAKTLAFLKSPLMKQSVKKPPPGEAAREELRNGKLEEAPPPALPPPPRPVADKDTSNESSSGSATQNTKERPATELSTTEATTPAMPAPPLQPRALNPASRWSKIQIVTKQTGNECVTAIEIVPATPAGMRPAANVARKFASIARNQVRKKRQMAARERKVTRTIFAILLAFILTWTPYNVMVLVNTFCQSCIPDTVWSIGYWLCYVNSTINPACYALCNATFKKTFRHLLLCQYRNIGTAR
Description: as §1, §2

[3] = target: T6, DAT: Dopamine Transporter (Homo sapiens, UniProt Q01959); assay: PDSP primary binding, DAT; details: n = 4, read-out: Inhibition (primary binding competition efficacy), DAT
T6 construct: purchased NIMH Psychoactive Drug Screening Program (PDSP)
Description: as §1, §2

GABAB = assay: PDSP primary binding, GABAB; details: 10 µM, n = 4
Description: as §1, §2

CYP2D6 = target: T7, CYP2D6 (Homo sapiens, UniProt P10635); assay: CYP2D6 inhibition, HLM, dextromethorphan substrate; type: in vitro ADME; details: 1.0E-05 M
T7 construct: from tissue; host or cells: human liver microsomes (HLM)
T7 sequence (P10635 whole entry): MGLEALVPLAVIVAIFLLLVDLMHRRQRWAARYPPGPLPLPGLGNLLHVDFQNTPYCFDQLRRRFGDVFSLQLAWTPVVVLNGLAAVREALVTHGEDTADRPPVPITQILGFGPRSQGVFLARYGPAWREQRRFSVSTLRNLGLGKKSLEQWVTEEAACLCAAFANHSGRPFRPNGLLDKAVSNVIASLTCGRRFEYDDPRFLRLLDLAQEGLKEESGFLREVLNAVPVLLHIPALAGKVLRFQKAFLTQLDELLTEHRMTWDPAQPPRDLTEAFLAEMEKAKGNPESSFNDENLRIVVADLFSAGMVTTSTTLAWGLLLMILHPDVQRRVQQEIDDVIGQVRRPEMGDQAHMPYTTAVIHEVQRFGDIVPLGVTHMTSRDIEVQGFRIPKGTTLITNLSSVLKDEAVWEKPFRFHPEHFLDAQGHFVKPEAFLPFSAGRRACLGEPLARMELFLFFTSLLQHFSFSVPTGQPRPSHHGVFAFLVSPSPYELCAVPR
From the text: (§4) Supplement prp20002-e00026-sd1.doc, table 3: Table 3.

CYP2C9 = target: T8, CYP2C9 (Homo sapiens, UniProt P11712); assay: CYP2C9 inhibition, HLM, diclofenac substrate; type: in vitro ADME; details: 1.0E-05 M
T8 construct: from tissue; host or cells: human liver microsomes (HLM)
From the text: as §4

α1D adrenergic receptor = target: T9, α1D adrenergic receptor (Homo sapiens, UniProt P25100); assay: PDSP primary binding, α1D; details: n = 4, read-out: Inhibition (primary binding competition efficacy), α1D
T9 construct: purchased NIMH Psychoactive Drug Screening Program (PDSP)
Description: as §1, §2

CYP1A = target: T10, CYP1A (Homo sapiens, UniProt P05177); assay: CYP1A inhibition, HLM, phenacetin substrate; type: in vitro ADME; details: 1.0E-05 M
T10 construct: from tissue; host or cells: human liver microsomes (HLM)
T10 sequence (P05177 2-516 limits assumed): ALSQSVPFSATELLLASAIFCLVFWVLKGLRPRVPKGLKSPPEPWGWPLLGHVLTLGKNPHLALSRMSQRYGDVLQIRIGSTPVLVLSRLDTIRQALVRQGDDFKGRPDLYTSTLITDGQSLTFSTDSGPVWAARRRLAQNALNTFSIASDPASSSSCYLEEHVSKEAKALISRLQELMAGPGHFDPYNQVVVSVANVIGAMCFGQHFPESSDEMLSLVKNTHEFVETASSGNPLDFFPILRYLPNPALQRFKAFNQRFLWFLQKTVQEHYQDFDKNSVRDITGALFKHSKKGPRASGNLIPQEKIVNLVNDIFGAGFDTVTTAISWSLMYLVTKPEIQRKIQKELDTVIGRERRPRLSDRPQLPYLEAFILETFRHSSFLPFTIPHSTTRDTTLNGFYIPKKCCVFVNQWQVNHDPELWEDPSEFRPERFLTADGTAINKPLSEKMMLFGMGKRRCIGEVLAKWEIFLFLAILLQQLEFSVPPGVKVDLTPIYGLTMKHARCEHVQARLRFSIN
From the text: as §4

CB1 = target: T11, CB1 (Homo sapiens, UniProt P21554); assay: PDSP primary binding, CB1; details: n = 4, read-out: Inhibition (primary binding competition efficacy), CB1
T11 construct: purchased NIMH Psychoactive Drug Screening Program (PDSP)
T11 sequence (P21554 whole entry): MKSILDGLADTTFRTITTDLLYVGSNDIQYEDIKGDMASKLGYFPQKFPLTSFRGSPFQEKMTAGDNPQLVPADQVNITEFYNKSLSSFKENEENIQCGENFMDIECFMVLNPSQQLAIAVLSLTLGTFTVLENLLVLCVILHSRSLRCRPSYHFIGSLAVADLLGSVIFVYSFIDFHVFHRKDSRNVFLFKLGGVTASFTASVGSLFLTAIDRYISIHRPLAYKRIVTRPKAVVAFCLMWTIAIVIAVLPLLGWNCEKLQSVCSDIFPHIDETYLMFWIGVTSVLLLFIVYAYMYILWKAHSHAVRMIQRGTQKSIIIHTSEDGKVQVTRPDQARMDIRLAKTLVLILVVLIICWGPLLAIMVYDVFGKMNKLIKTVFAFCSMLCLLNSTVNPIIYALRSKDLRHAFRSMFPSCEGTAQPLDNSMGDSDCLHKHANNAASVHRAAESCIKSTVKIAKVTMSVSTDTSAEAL
Description: as §1, §2

α7* nAChR = details: ref Yu et al. [2012], cited from earlier work
α2A adrenergic receptor = target: T12, α2A adrenergic receptor (Homo sapiens, UniProt P08913); assay: PDSP primary binding, α2A; details: n = 4, read-out: Inhibition (primary binding competition efficacy), α2A
T12 construct: purchased NIMH Psychoactive Drug Screening Program (PDSP)
T12 sequence (P08913 whole entry): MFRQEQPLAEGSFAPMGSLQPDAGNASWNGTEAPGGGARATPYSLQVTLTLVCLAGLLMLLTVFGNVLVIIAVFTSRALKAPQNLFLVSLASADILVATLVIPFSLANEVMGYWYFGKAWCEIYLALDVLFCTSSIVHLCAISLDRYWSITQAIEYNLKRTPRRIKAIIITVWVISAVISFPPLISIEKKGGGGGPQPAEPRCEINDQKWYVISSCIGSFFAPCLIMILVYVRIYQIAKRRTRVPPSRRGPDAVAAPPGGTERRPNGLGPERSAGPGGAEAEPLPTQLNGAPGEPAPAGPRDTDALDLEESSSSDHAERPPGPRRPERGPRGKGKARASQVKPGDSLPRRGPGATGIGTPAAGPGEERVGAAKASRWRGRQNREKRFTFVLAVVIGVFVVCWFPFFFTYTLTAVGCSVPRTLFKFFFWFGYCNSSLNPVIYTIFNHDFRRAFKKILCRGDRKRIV
Description: as §1, §2

H1 histamine receptor = target: T13, H1 histamine receptor (Homo sapiens, UniProt P35367); assay: PDSP primary binding, H1; details: n = 4, read-out: Inhibition (primary binding competition efficacy), H1
T13 construct: purchased NIMH Psychoactive Drug Screening Program (PDSP)
T13 sequence (P35367 whole entry): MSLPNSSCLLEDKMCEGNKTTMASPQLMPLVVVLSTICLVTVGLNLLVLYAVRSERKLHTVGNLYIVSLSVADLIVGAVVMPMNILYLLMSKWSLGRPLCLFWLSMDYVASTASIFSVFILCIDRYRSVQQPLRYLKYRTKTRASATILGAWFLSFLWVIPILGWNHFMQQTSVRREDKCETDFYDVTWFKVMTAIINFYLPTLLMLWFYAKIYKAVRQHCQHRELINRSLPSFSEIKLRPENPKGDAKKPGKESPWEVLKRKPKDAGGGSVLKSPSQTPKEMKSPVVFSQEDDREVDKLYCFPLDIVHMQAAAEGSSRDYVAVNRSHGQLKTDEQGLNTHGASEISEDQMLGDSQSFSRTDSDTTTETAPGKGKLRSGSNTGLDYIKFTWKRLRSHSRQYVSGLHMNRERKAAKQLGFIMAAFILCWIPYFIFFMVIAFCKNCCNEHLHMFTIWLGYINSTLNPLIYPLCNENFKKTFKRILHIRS
Description: as §1, §2

5-HT6 = target: T14, 5-HT6 (Homo sapiens, UniProt P50406); assay: PDSP primary binding, 5-HT6; details: n = 4, read-out: Inhibition (primary binding competition efficacy), 5-HT6
T14 construct: purchased NIMH Psychoactive Drug Screening Program (PDSP)
T14 sequence (P50406 whole entry): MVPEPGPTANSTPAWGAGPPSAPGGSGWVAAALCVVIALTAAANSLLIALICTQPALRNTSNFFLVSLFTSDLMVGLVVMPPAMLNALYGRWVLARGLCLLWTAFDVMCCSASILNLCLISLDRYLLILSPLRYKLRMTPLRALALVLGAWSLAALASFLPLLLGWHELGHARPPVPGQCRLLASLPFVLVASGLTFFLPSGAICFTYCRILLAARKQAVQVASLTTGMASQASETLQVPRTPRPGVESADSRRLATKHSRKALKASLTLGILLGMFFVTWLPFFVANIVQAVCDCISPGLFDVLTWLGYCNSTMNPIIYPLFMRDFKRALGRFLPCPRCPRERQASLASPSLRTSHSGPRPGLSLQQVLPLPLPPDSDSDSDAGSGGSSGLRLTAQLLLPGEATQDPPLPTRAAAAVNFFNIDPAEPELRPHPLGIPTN
Description: as §1, §2

[4] = test system: five different cytochrome P450 (CYP450) enzymes (2D6, 3A, 1A, 2C9, and 2C19); assay: CYP450 inhibition panel (summary); type: in vitro ADME, human; details: in words
[5] = Metabolic stability, cryopreserved hepatocytes, mouse; type: in vitro ADME; details: CD-1, 1.0E-06 M, 2 h

Work on `OCCc1cc(-c2cncc(OC[C@@H]3CCN3)c2)on1` [LF-3-88, 2-[5-[5-(2(S)-azetidinylmethoxyl)-3-pyridyl]-3-isoxazolyl]ethanol] yielded an inhibition at 10 µM (5-HT4) of 3.7%, an inhibition at 10 µM (M3 muscarinic receptor) of 0.9% and a viability at 0.0001 M ([1]; strain TA100 – S9, 1.0E-04 M) of 139%. It also gave a viability at 10 µM ([1]; strain TA100 – S9, 1.0E-05 M) of 103%, a viability at 1.25 µM ([1]; strain TA100 – S9, 1.25E-06 M) of 102% and a viability at 25 µM ([1]; strain TA100 – S9, 2.5E-05 M) of 115%. It also gave a viability at 2.5 µM ([1]; strain TA100 – S9, 2.5E-06 M) of 99%, a viability at 50 µM ([1]; strain TA100 – S9, 5.0E-05 M) of 125% and a viability at 5 µM ([1]; strain TA100 – S9, 5.0E-06 M) of 103%. For the same compound, the viability at 625 nM ([1]; strain TA100 – S9, 6.25E-07 M) was 101%, the “agonist activity at α7-nAChRs in oocytes” value (human α7-nAChR; 20 μmol/L) was “lack of agonist activity” and the “effect at α7-nAChRs in oocytes” value (human α7-nAChR; concentrations as high as 20 μmol/L) was “No effect”. The “antagonist activity at α7-nAChR in oocytes” value (human α7-nAChR; responses to 100 μmol/L ACh) was “weak if any antagonist activity”, the viability at 0.0001 M ([2]; strain TA98 – S9, 1.0E-04 M) was 108% and the viability at 10 µM ([2]; strain TA98 – S9, 1.0E-05 M) was 92%. The viability at 1.25 µM ([2]; strain TA98 – S9, 1.25E-06 M) was 95%, the viability at 25 µM ([2]; strain TA98 – S9, 2.5E-05 M) was 94% and the viability at 2.5 µM ([2]; strain TA98 – S9, 2.5E-06 M) was 98%. The viability at 50 µM ([2]; strain TA98 – S9, 5.0E-05 M) was 102%, the viability at 5 µM ([2]; strain TA98 – S9, 5.0E-06 M) was 96% and the viability at 625 nM ([2]; strain TA98 – S9, 6.25E-07 M) was 97%. The inhibition at 10 µM (α1A adrenergic receptor) was -5.5%, the “Inhibition (primary binding competition efficacy), σ 1” value (σ 1 sigma receptor) was 15.8% and the inhibition at 10 µM (M4 muscarinic receptor) was -3.6%. For the same compound, the inhibition at 10 µM [3] was 18.6%, the “Inhibition (primary binding competition efficacy), GABAB” value (GABAB) was 1.1% and the “CYP2D6 Inhibition” value (CYP2D6) was -0.4%. For the same compound, the “CYP2C9 Inhibition” value (CYP2C9) was 4%, the inhibition at 10 µM (α1D adrenergic receptor) was -3.4% and the “CYP1A Inhibition” value (CYP1A) was 13%. The inhibition at 10 µM (CB1) was 5.1%, the Ki (α7* nAChR; Figure 1) was greater than 10 µM and the “Ki α7*” value (α7* nAChR; rat forebrain, class symbol) was “NA (NA: not active, defined as < 50% binding in the primary assay at 10 μmol/L)”. The inhibition at 10 µM (α2A adrenergic receptor) was 23.1%, the inhibition at 10 µM (H1 histamine receptor) was -6% and the inhibition at 10 µM (5-HT6) was -1.9%. The “inhibition toward five CYP450 enzymes” value [4] was “No significant inhibition” and the “Remaining (metabolic stability)” value [5] was 91%.
